Assays:
laccase [1] = experiment: Laccase inhibition (ABTS colorimetric method), ant sample; assay type: biochemical; conditions: anti-laccase activity, ABTS substrate, read-out: IC50 Acromyrmex octospinosus
Protocol: (§1) Crushing was performed in mortars placed on ice, using pestles. […] After obtaining crushed matter of homogeneous texture, the whole was centrifuged. Centrifugation was performed at 4° C., 15,000 rpm for 20 min. For protein precipitation, the supernatant was 80% saturated with ammonium sulphate ((NH4)2SO4). After total dissolution of the ammonium sulphate, the solution obtained is placed at 4° C. for 12 hours. The solution was then centrifuged at a temperature of 4° C., at 15,000 rpm, for 20 min. The pellet obtained is redissolved in a minimum of cold distilled water and then dialysed against 5 litres of distilled water at 4° C. for 12 hours. The extract thus obtained constitutes the crude enzyme extract. These extracts were aliquoted and then stored at -20° C. […] Briefly, ABTS is diluted to 27.4 mg/L in […] buffer solution (pH 5.2). 150 μL of ABTS solution is incubated with 100 μL of test solution and then incubated for 30 min at 37° C. The measurement of OD at 405 nm is used to determine the amount of oxidised ABTS using Beer-Lambert's law (epsilon=36,000 mM). […] The method was published by Bourbonnais et al. in 1990 (Oxidation of non-phenolic substrates. An expanded role for laccase in lignin biodegradation. FEBS, 1990, 267, 99-102). […] The inhibitors selected for analysis are compounds having antioxidant capacity.

laccase [2] = experiment: Laccase inhibition (ABTS colorimetric method), fungus garden sample; assay type: biochemical; conditions: anti-laccase activity, ABTS substrate, read-out: IC50 Leucophorus gongylophorus
Protocol: as §1

Streptomyces (NA 2B3) = experiment: Antibacterial activity using discs in Petri dishes, strain Streptomyces NA2B3; assay type: cell-based
Protocol: (§2) The general principle is to test in solid medium the culture of the strain in the presence of a paper disc impregnated with the molecule to be tested. For each molecule tested at least three dilutions were prepared. In the presence of a molecule, a halo, the diameter of which is related to the intensity of the inhibitory effect, appears around the paper disc. This approach provides a simple way to select antibacterial molecules and to determine the minimum inhibitory concentration (MIC) of bacterial growth.
(§3) Antibacterial activity can be measured in liquid medium (in a liquid bacterial culture) or in solid medium (on an agar Petri dish) by adding a known concentration of antibiotic. In liquid medium, inhibition is measured by an optical density (OD); in solid medium, growth inhibition is estimated by the diameter of the halo corresponding to the zone where no growth is observed.
(§4) From the isolates, a sample is taken. This is suspended in 1 mL of physiological saline solution without measuring OD.
(§5) Inoculation is performed with 100 μL of suspension using a spreader. For undiluted essential oil tests, a disc soaked in essential oil is placed in the centre of the dish. For dilutions (½; ⅕), both discs are placed in the same dish. Dilutions were prepared by diluting the essential oils in sunflower oil. A control dish was prepared and consists of an inoculate in the absence of essential oil. A second control, this time with a disc impregnated with sunflower oil, was also prepared to confirm the absence of an effect. All products were sterilised and the experiments were performed under a hood in sterile conditions.
(§6) After 4 days of growth, the inhibition diameters were measured.

[3] = tested on: 5 actinomycete strains isolated from fungus-growing ants; experiment: Antibacterial activity using discs in Petri dishes, average of 5 actinomycete strains; assay type: cell-based, Streptomyces, Tsukumurella and Gordonia
Protocol: as §2, §3, §4, §5, §6
This step made it possible to isolate, from ants belonging to the species Acromyrmex octospinosus, 15 actinomycete strains including 12 belonging to the genus Tsukumurella, two to the genus Streptomyces and one to the genus Gordonia. In total, 5 strains belonging to the genera Streptomyces, Tsukumurella and Gordonia were selected for the analysis of antibacterial substances.

[4] = tested on: laccase activity of Acromyrmex octospinosus and of Leucophorus gongylophorus; experiment: Laccase inhibition (ABTS), ant and fungus garden samples together; assay type: biochemical; conditions: for anti-laccase activity (in words): data not shown
Protocol: Crushing was performed in mortars placed on ice, using pestles. Ants (2 g) and fungus garden (2 g) were crushed in 10 mL of distilled water refrigerated at 4° C. After obtaining crushed matter of homogeneous texture, the whole was centrifuged. Centrifugation was performed at 4° C., 15,000 rpm for 20 min.
For protein precipitation, the supernatant was 80% saturated with ammonium sulphate ((NH4)2SO4). After total dissolution of the ammonium sulphate, the solution obtained is placed at 4° C. for 12 hours. The solution was then centrifuged at a temperature of 4° C., at 15,000 rpm, for 20 min. The pellet obtained is redissolved in a minimum of cold distilled water and then dialysed against 5 litres of distilled water at 4° C. for 12 hours. The extract thus obtained constitutes the crude enzyme extract. These extracts were aliquoted and then stored at −20° C.
Laccase activity was evaluated using 2,2′-azino-bis(3-ethylbenzthiazoline-6-sulphonic acid) (ABTS) as oxidation control substrate. Briefly, ABTS is diluted to 27.4 mg/L in Mcllvain buffer solution (pH 5.2). 150 μL of ABTS solution is incubated with 100 μL of test solution and then incubated for 30 min at 37° C. The measurement of OD at 405 nm is used to determine the amount of oxidised ABTS using Beer-Lambert's law (epsilon=36,000 mM).
The determination of laccase activity is based on a colorimetric method where the substrate ABTS (2,2′-azino-bis(3-ethylbenzthiazoline-6-sulphonic acid) in reduced form (colourless) is oxidised (green colour) in the presence of the enzyme. The method was published by Bourbonnais et al. in 1990 (Oxidation of non-phenolic substrates. An expanded role for laccase in lignin biodegradation. FEBS, 1990, 267, 99-102). To test the inhibition of laccase activity, the molecule tested is added to the reaction mixture in amounts ranging from 0.1 mM to 100 mM. The inhibitors selected for analysis are compounds having antioxidant capacity.

| Compound | IC50 (laccase [1]) [µM] | IC50 (laccase [2]) [µM] | inhibition diameter (Streptomyces (NA 2B3); Table 5, 20%) [cm] | Average inhibition diameters ([3]; Table 6, 20%) | other results |
| --- | --- | --- | --- | --- | --- |
| O=C1O[C@H]([C@@H](O)CO)C(O)=C1O [Ascorbic acid] | < 250 | < 250 |  |  |  |
| Cc1ccc(C(C)C)cc1O [Carvacrol] |  |  | 2.2 ± 0.3 | 2.4 ± 0.3 |  |
| O=CC=Cc1ccccc1 [Cinnamaldehyde] |  |  | 3.0 ± 1.5 | 4.5 ± 0.6 | Average inhibition diameters ([3]; Table 6, 10%): 2.9 ± 0.6 |
| CC[C@H]1OC(=O)[C@H](C)[C@@H](O[C@H]2C[C@@](C)(OC)[C@@H](O)[C@H](C)O2)[C@H](C)[C@@H](O[C@@H]2O[C@H](C)C[C@H](N(C)C)[C@H]2O)[C@](C)(O)C[C@@H](C)C(=O)[C@H](C)[C@@H](O)[C@]1(C)O [Erythromycin, reference compound] |  |  | 4.3 ± 0.3 | 3.6 ± 0.4 | inhibition diameter (Streptomyces (NA 2B3); Table 3, 10%): 2.2 ± 0.3 cm; inhibition diameter (Streptomyces (NA 2B3); Table 3, 20%): 3.6 ± 0.4 cm; inhibition diameter (Streptomyces (NA 2B3); Table 5, 10%): 3.5 ± 0.5 cm; Average inhibition diameters ([3]; Table 4, 10%): 3.2 ± 0.4 cm; Average inhibition diameters ([3]; Table 4, 20%): 3.6 ± 0.4 cm; Average inhibition diameters ([3]; Table 6, 10%): 3.2 ± 0.4 |
| C=CCc1ccc(O)c(OC)c1 [Eugenol] |  |  |  | 2.9 ± 0.7 | anti-laccase activity (in words) [4]: anti-laccase activity was observed |
| COc1cc(/C=C/C(=O)O)ccc1O [Ferulic acid] | < 100 | < 50 |  |  |  |
| O=C(O)c1cc(O)c(O)c(O)c1 [Gallic acid] | < 50 | < 50 |  |  |  |
| N[C@@H](CS)C(=O)O [L-Cysteine] | < 250 | < 250 |  |  | inhibition of laccase activity ([4]; at concentrations above 0.5 mM (FIG. 1)): more than 80% |
| O=S(O)(O)=S [Sodium thiosulfate] | < 250 | < 250 |  |  |  |
| COc1cc(C(=O)O)cc(OC)c1O [Syringic acid] | < 250 | < 100 |  |  |  |
| Cc1ccc(C(C)C)c(O)c1 [Thymol] |  |  | 1.7 ± 0.8 | 2.2 ± 0.3 | anti-laccase activity (in words) [4]: anti-laccase activity was observed |
